Here are results for ten molecules from ChEMBL document CHEMBL1201862, “PubChem BioAssay data set” (2004).

Molecules are shown by their SMILES.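 Results reflect a 48-hour exposure of cells in 96-well plates to compound at five concentrations. GI50 = concentration required for 50% inhibition of growth.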 Active and inactive are the calls of the source. Cut-off read from the data, not from the text of the source: active = GI50 up to about 1.1 µM and inactive = higher. Bounds are passed on as bounds.

Holding throughout (assay): inhibition of tumour cell growth, NCI panel, 48 h
Assay [1] has as its system OVCAR-8.
In assay [2] the test system is RPMI-8226.
For assay [3], the system named is LOX IMVI.
Assay [4] concerns SF-295.
The test system of assay [5] is UACC-257.
For assay [6], the system named is NCI-H522.
Assay [7] deals with SN12C.
Assay [8] deals with UACC-62.
Assay [9] deals with SNB-75.
Assay [10] has as its system SW-620.
Assay [11] relates to SK-MEL-2.
The subject of assay [12] is EKVX.
Assay [13] has as its system SNB-19.
Assay [14] concerns K562.
Assay [15] deals with NCI-H460.
The subject of assay [16] is SK-MEL-5.
Assay [17] has as its system U-251.
The subject of assay [18] is OVCAR-4.
The test system of assay [19] is A549.
Assay [20] relates to M14.

For the molecule `CCOC(=O)c1c(Br)c(-c2ccc(Br)cc2)c(Br)n1C`, the GI50 was 28.8 µM (inactive) in assay [1]; 17.9 µM (inactive) in assay [2]; 7.16 µM (inactive) in assay [3]; 17.9 µM (inactive) in assay [4]; 20.7 µM (inactive) in [5]; 9.38 µM (inactive) in assay [6]. Further, the GI50 in [7] was 25.2 µM (inactive); in assay [8], 9.27 µM (inactive); in assay [9] it was 3.18 µM (inactive); in assay [10], 23.2 µM (inactive); in assay [11], > 10 µM (inactive); in assay [12] it was 8.99 µM (inactive). Further, the GI50 was 28.3 µM (inactive) in assay [13]; 5.08 µM (inactive) in assay [14]; 28.4 µM (inactive) in assay [15]; 17.5 µM (inactive) in [16]; 18 µM (inactive) in [17]; 19.3 µM (inactive) in assay [18]. The GI50 in [19] is 23.6 µM (inactive); in assay [20] it was 18.8 µM (inactive).

As for `C=CCC1=C(C)C[C@@H]2CCC(=O)C=C12`, the GI50 in [1], in [2], in [3], in [4], in assay [5] and in assay [6] was > 100 µM (inactive) in each case. In addition, the GI50 in assay [7], in assay [8], in [9], in assay [10], in [11] and in assay [12] was > 100 µM (inactive) each time. Besides, the GI50 in assay [13], in assay [14], in [15], in [16], in assay [17] and in assay [18] was > 100 µM (inactive) throughout. For the same molecule, the GI50 in [19] and in assay [20] was > 100 µM (inactive) in each case.

On to `O=C1C2CCCCC2C(=O)N1n1c(-c2ccccc2)n[nH]c1=O` (stereo not drawn), for which the GI50 in assay [1], in assay [2], in assay [3], in [4], in assay [5] and in assay [6] was > 100 µM (inactive) in each case. In addition, the GI50 in [7], in assay [8], in [9], in assay [10], in assay [11] and in assay [12] was > 100 µM (inactive) each time. Moreover, the GI50 in assay [13], in assay [14], in [15], in assay [16], in assay [17] and in [18] was > 100 µM (inactive) in each case. For the same molecule, the GI50 in assay [19] and in [20] was > 100 µM (inactive) throughout.

Take `Cc1c(Cl)cccc1NC(=O)C(=O)C1C(=O)CC(C)(C)CC1=O`: the GI50 in [1], in assay [2], in [3], in [4], in assay [5] and in assay [6] was > 100 µM (inactive) throughout. For the same molecule, the GI50 in assay [7], in [8], in [9], in assay [10], in assay [11] and in assay [12] was > 100 µM (inactive) each time. In addition, the GI50 in assay [13], in assay [14], in assay [15], in assay [16], in assay [17] and in [18] was > 100 µM (inactive) each time. The GI50 in assay [19] and in [20] was > 100 µM (inactive) throughout.

Consider `COc1ccc2c(c1)-c1nc(=S)n(CCN(C)C)c3ccc([N+](=O)[O-])c(c13)N2`, for which the GI50 in [1] is 0.484 µM (active); in assay [2] it was 0.573 µM (active); in assay [3], 0.738 µM (active); in assay [4] it was 0.794 µM (active); in assay [5] it was 1 µM (active); in [6], 0.533 µM (active). The GI50 in assay [7] was 0.638 µM (active); in [8] it was 10.6 µM (inactive); in assay [9] it was 1.3 µM (inactive); in [10] it was 0.404 µM (active); in assay [11], 7.31 µM (inactive); in [12], 1.97 µM (inactive). Besides, the GI50 in [13] was 0.828 µM (active); in assay [14], 0.389 µM (active); in assay [15] it was 0.365 µM (active); in assay [16], 3.65 µM (inactive); in assay [17], 1.08 µM (active); in assay [18] it was 2.36 µM (inactive). In addition, the GI50 in assay [19] was 0.515 µM (active); in [20], 2.94 µM (inactive).

Regarding `Oc1cc(-c2cccc3ccccc23)nc2ncccc12`, the GI50 was 0.05 µM (active) in assay [1]; 0.0243 µM (active) in assay [2]; 0.033 µM (active) in [3]; 0.0388 µM (active) in assay [4]; 0.00152 µM (active) in assay [5]; 0.0201 µM (active) in assay [6]. In addition, the GI50 in [7] is 0.09 µM (active); in assay [8], 0.0102 µM (active); in [9], 0.00684 µM (active); in assay [10] it was 0.0344 µM (active); in assay [11], 0.0178 µM (active); in [12] it was 0.0948 µM (active). For the same molecule, the GI50 is 0.0274 µM (active) in assay [13]; 0.00525 µM (active) in assay [14]; 0.0443 µM (active) in [15]; 0.0021 µM (active) in assay [16]; 0.0211 µM (active) in [17]; 0.0542 µM (active) in assay [18]. Moreover, the GI50 was 0.0481 µM (active) in [19] and 0.0159 µM (active) in assay [20].

For `CN(c1ccccc1)S(=O)(=O)c1ccccc1[N+](=O)[O-]`, the GI50 in assay [1] was > 100 µM (inactive); in assay [2], 37.8 µM (inactive); in assay [3], > 100 µM (inactive); in [4], > 100 µM (inactive); in [5], > 100 µM (inactive); in [6], 64.3 µM (inactive). Moreover, the GI50 is > 100 µM (inactive) in assay [7]; > 100 µM (inactive) in assay [8]; 96.6 µM (inactive) in assay [9]; > 100 µM (inactive) in [10]; > 100 µM (inactive) in assay [11]; > 100 µM (inactive) in assay [12]. In addition, the GI50 in assay [13] is > 100 µM (inactive); in [14], 36.3 µM (inactive); in assay [15], 77.1 µM (inactive); in assay [16], > 10 µM (inactive); in assay [17] it was > 100 µM (inactive); in [18], 98.4 µM (inactive). The GI50 in assay [19] and in assay [20] was > 100 µM (inactive) each time.

As to `Brc1cccc(/C=N/C23CC4CC(CC(C4)C2)C3)c1`, the GI50 in [1], in [2], in assay [3], in assay [4], in assay [5] and in [6] was > 100 µM (inactive) throughout. Further, the GI50 in [7], in assay [8], in assay [9], in assay [10], in assay [11] and in assay [12] was > 100 µM (inactive) throughout. The GI50 in assay [13], in assay [14], in assay [15], in [16], in assay [17] and in assay [18] was > 100 µM (inactive) in each case. The GI50 in [19] and in [20] was > 100 µM (inactive) in each case.

For `C=C(Cl)C(C)(Cl)CCC(Cl)C(C)C` (stereo not drawn), the GI50 in [2] was 48.6 µM (inactive); in assay [3], 15.3 µM (inactive); in assay [4], > 100 µM (inactive); in assay [5] it was > 100 µM (inactive); in [6], 37 µM (inactive); in [7], > 100 µM (inactive). Moreover, the GI50 in assay [8] is > 100 µM (inactive); in [9] it was 24.6 µM (inactive); in assay [10], 99.5 µM (inactive); in assay [11], > 100 µM (inactive); in assay [12], > 100 µM (inactive); in assay [13], > 100 µM (inactive). Further, the GI50 was 51.5 µM (inactive) in assay [14]; > 100 µM (inactive) in assay [15]; > 100 µM (inactive) in [16]; > 100 µM (inactive) in assay [17]; > 100 µM (inactive) in assay [18]; > 100 µM (inactive) in assay [19]. The GI50 in assay [20] was 57.7 µM (inactive).

Regarding `O=CC1CCC=CC1NC(=O)OCc1ccccc1` (stereo not drawn), the GI50 in assay [1] was 22.7 µM (inactive); in assay [2], 40.5 µM (inactive); in assay [3], 48.4 µM (inactive); in [4], 30.5 µM (inactive); in assay [5], > 100 µM (inactive); in assay [6], > 100 µM (inactive). For the same molecule, the GI50 in [7] was 35 µM (inactive); in assay [8], 42.5 µM (inactive); in assay [9], 29.2 µM (inactive); in [10] it was 37.2 µM (inactive); in assay [11], 38.5 µM (inactive); in [12], > 100 µM (inactive). In addition, the GI50 in [14] is 4.68 µM (inactive); in assay [15] it was 59.3 µM (inactive); in [16], 51.9 µM (inactive); in [17] it was 57.5 µM (inactive); in assay [18], 94.6 µM (inactive); in assay [19] it was > 100 µM (inactive). In addition, the GI50 in assay [20] is 33.9 µM (inactive).
